We go through 26 compounds from patent publication US20220280530A1, “PREVENTION OR TREATMENT OF DISEASES AND DISORDERS ASSOCIATED WITH TISSUE DAMAGE” (priority 2019, published 2022).

Where two headings read alike, the source gives them in different places. A value given as a limit tells only on which side of the number the result lay.

The target in assay [1] is MST1 (Homo sapiens, UniProt Q13043). As to the kind of experiment: MST1 protein kinase inhibition (Table 5). Format: biochemical.
The target of assay [2] is T1, MST2 (Homo sapiens, UniProt Q13188).
T1 sequence (Q13188 1-491): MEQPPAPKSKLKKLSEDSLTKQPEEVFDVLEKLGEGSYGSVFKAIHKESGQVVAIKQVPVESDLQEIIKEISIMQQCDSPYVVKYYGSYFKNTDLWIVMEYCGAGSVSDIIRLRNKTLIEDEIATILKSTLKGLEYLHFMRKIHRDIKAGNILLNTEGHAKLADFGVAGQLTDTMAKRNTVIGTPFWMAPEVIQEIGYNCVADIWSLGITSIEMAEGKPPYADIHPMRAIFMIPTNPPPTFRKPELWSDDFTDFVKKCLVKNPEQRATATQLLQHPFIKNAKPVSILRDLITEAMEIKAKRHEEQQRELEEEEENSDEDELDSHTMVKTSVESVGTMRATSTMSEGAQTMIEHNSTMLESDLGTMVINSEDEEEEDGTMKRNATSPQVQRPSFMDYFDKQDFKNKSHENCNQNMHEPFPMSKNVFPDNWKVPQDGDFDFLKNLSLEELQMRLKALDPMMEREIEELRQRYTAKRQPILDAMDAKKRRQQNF
The experiment in a line: MST2 protein kinase inhibition (Table 5). Format: biochemical.

In assay [3] the test system is C57B1/6 mice, MCAO-induced cerebral ischemia. As to the kind of experiment: Mouse cerebral ischemia model by transient middle cerebral artery occlusion (MCAO). Format: in vivo. Here is the method:
To verify the protective effect of the inhibitors of MST1/2 protein kinases on the brain injury after ischemic stroke, X1 was administered to mouse cerebral ischemia model induced by transient middle cerebral artery occlusion (MCAO). Briefly, 8-12 week-old C57B1/6 mice (both male and female mice) were intraperitoneal injection with vehicle (DMSO) or 2 mg/kg X1 twice at 24 hours and 3 hours prior to MCAO procedure respectively. Mice were then anesthetized with 2.0% isoflurane, with their body temperature maintained at 37° C. with a heating pad. Following a midline cervical skin incision, the proximal right common carotid artery and the right external carotid artery were ligated. […]
Real-time cerebral blood flow was monitored using a laser speckle contrast imager (PeriCam PSI HR System, Perimed, Sweden) to confirm occlusion of the MCAO and reperfusion after removal of the filament. […] Brain sections were stained with 2% 2,3,5-Triphenyltetrazolium chloride (T8877; Sigma-Aldrich, St. Louis, Mo.) and scanned (HP Scanjet G4010) to allow quantification of infarcted and uninjured brain tissue. […]
In addition, neurological function of the MCAO-induced cerebral ischemia model mice was evaluated after treatment with the MST1/2 protein kinases inhibitor X1. […]

In assay [4] the test system is mice treated with DOX. The experiment in a line: In vivo cardio protection: heart function and atrophy induced by DOX in mice. The conditions noted are these: by week four, inhibitors daily i.p., FIG. 11. How it is done: In vivo cardio protection in mice by the inhibitors of MST1/2 protein kinases was verified by measuring heart function and atrophy induced by DOX (FIG. 8). Two inhibitors X1 (drug 1) and Y1 (drug 2) were administered to the mice daily by i.p. during the entire study period. After administration of the inhibitors for six days, DOX was administered every two days by i.p. for four times. Blood samples were collected periodically from the mice by […]. EdU was administered to the mice during the final four days of the study (FIG. 8).
Further, the mice were disected at the death or at the end of the study and the weight of the hearts was measured.
The heart function measured as EF % (ejection fraction) was impaired by DOX over the four-week study period.

Assay [5] has as its system inflammatory cytokines in the mouse lung. As to the kind of experiment: Murine septic model (LPS): inflammatory cytokine mRNA in mouse lung (real-time PCR). Type of assay: in vivo, mice. The conditions noted are these: LPS 2.5 mg/kg i.p.; pretreated twice at 24 hrs and 3 hrs prior; 6 hrs after LPS; FIGS. 21A-21D. How it is done:
In this regard, the mice were pretreated with X1 twice at 24 hrs and 3 hrs, respectively, prior to the injection of lipopolysaccharides (LPS). 6 hrs after injection of LPS to induce the sepsis model, the expression of inflammatory cytokines in the mouse lung was determined by real-time PCR.
For orientation: Quantitative PCR measures a nucleic acid by following its amplification.

The test system of assay [6] is ICAM-1. The experiment in a line: ICAM-1 expression in stimulated HUVECs (western blot). Type of assay: cell-based, human. The settings on record: 1 μM, 1 hour pretreatment, TNF-α (20 ng/mL) and IL-1β (10 ng/mL) 12 hours; FIG. 15A.
The subject of assay [7] is THP-1 cells / TNFα-activated ECs. As to the kind of experiment: Adhesion of THP-1 cells to TNFα-activated endothelial cells. Type of assay: cell-based, human. The settings on record: FIGS. 19A-19B, 20A-20B. Here is the method: To substantiate the functional significance of inhibitors of MST1/2 protein kinases in activating endothelial cells, the monocyte adhesion to the activated endothelial cells was further examined.
Cell adhesion was assessed as the follows: THP1 cells were labeled with calcein-AM (Invitrogen) according to the instructions of the manufacturer. After the HUVECs were stimulated and washed, 2.5×10^5 calcein-labeled THP1 cells were added to each well and allowed to interact with MST1/2 inhibitors for 60 minutes at […]. Unbound cells were removed by gently washing with complete medium, and the number of attached cells was counted on an inverted fluorescent microscope.

For assay [8], the system named is VCAM-1. The experiment in a line: VCAM-1 expression in stimulated HUVECs (western blot). The conditions noted are these: for IC50: Homo sapiens, HUVEC, read-out: IC50 of inhibition of VCAM-1 expression. Format: cell-based, human. On the technique in general: A western blot detects proteins with antibodies after separation by electrophoresis.
Assay [9] concerns inflammatory cytokines in HUVEC, such as MCP-1 and IL-6. As to the kind of experiment: mRNA levels of inflammatory cytokines in HUVEC after TNFα stimulation (qPCR). Type of assay: cell-based, human. The conditions noted are these: in response to TNFα stimulation, FIGS. 17A-17D, 18A-18D.

MST1, sequence (Q13043 whole entry, looked up): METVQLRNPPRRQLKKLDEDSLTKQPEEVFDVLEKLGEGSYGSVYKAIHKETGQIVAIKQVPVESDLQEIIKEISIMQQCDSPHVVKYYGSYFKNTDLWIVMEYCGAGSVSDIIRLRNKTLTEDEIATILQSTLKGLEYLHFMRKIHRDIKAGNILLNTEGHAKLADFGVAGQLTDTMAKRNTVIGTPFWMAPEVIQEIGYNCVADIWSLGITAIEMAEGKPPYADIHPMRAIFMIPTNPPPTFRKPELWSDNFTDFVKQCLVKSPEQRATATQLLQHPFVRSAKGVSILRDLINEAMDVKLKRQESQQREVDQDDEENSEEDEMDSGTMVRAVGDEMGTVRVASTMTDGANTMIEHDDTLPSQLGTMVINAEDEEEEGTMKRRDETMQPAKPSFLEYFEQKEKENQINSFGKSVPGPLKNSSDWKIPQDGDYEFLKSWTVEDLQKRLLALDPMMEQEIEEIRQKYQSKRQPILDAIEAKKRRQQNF

What is called IC50 is the concentration that inhibits the measured activity by half. On to `CN1c2ccccc2C(=O)Nc2cnc(Nc3ccc(NS(C)(=O)=O)cc3)nc21` [IA-6], for which the IC50 in [1] and in assay [2] was greater than 30 µM throughout.
Regarding `NS(=O)(=O)c1ccc(Nc2ncc3c(n2)N(C2CCCC2)c2ccccc2C(=O)N3)cc1` [IB-1], the IC50 in assay [1] and in assay [2] was greater than 30 µM throughout.
On to `CN1C(=O)c2ccccc2N(C)c2nc(Nc3cccc(S(N)(=O)=O)c3)ncc21` [IC-4], for which the half-inhibitory concentration (IC50) in [1] and in assay [2] was greater than 30 µM throughout.
Consider `CCN1CCN(Cc2ccc(Nc3ncc4c(n3)N(C)c3ccccc3C(=O)N4C)cc2C(F)(F)F)CC1` [IC-5], for which the IC50 in assay [1] (read-out: MST1 IC50) was determined as 1.91 µM; in assay [2], 1.8 µM.
In the case of `CCN1c2ccccc2C(=O)N(C)c2cnc(Nc3ccc(S(N)(=O)=O)cc3)nc21` [ID-1], the IC50 in assay [1] (read-out: MST1 IC50) was 0.04 µM; in [2] it was 0.11 µM.
`CCN1c2ccccc2C(=O)N(C)c2cnc(Nc3cccc(S(N)(=O)=O)c3)nc21` [ID-3]: the IC50 in assay [2] is greater than 30 µM.
Take `CC(C)N1c2ccccc2C(=O)N(C)c2cnc(Nc3ccc(S(N)(=O)=O)cc3)nc21` [IE-1]: the concentration for half-maximal inhibition (IC50) was 0.83 µM in assay [1] (read-out: MST1 IC50) and 2.45 µM in assay [2].
Regarding `CC(C)N1c2ccccc2C(=O)N(C)c2cnc(Nc3cccc(S(N)(=O)=O)c3)nc21` [IE-2], in assay [2], the IC50 was greater than 30 µM.
As for `CN1CCN(S(=O)(=O)c2ccc(Nc3ncc4c(n3)N(C3CCCC3)c3ccccc3C(=O)N4C)cc2)CC1` [IF-4], in [2], the IC50 was greater than 30 µM.
On to `CN1C(=O)c2ccccc2N(C2CCCC2)c2nc(Nc3cccc(S(N)(=O)=O)c3)ncc21` [IF-5], for which the IC50 in assay [1] and in [2] was greater than 30 µM throughout.
In [2], `CCN1CCN(Cc2ccc(Nc3ncc4c(n3)N(C3CCCC3)c3ccccc3C(=O)N4C)cc2C(F)(F)F)CC1` [IF-6] gave an IC50 greater than 30 µM.
With `CN1C(=O)c2ccccc2Nc2nc(Nc3cccc(S(N)(=O)=O)c3)ncc21` [IG-3], the IC50 in assay [1] and in [2] was greater than 30 µM in each case.
As to `Cc1ccc2c(c1)C(=O)N(C)c1cnc(Nc3ccc(S(C)(=O)=O)cc3)nc1N2C` [IH-3], the IC50 in assay [1] and in assay [2] was greater than 30 µM each time.
For the compound `Cc1ccc2c(c1)C(=O)N(C)c1cnc(Nc3ccc(S(N)(=O)=O)cc3)nc1N2C` [IH-6], the half-maximal inhibitory concentration (IC50) in assay [1] and in [2] was greater than 30 µM throughout.
In assay [1], `[2H]c1ccc2c(c1)N(C)c1nc(Nc3ccc(S(N)(=O)=O)cc3)ncc1N(C)C2=O` [IH-7] had an IC50 of 3.12 µM.
Take `CN1C(=O)c2cc(Cl)ccc2N(C)c2nc(Nc3ccc(S(N)(=O)=O)cc3)ncc21` [IH-10]: the half-maximal inhibitory concentration (IC50) in [2] was greater than 30 µM.
For `CN1C(=O)c2ccc(Cl)cc2N(C)c2nc(Nc3ccc(S(C)(=O)=O)cc3)ncc21` [IH-14], the IC50 in assay [1] is greater than 30 µM.
With `CN1C(=O)c2sccc2N(C)c2nc(Nc3cccc(S(N)(=O)=O)c3)ncc21` [II-2], the IC50 in assay [2] was greater than 30 µM.
On to `CN1C(=O)c2sccc2N(C)c2nc(Nc3ccc([N+](=O)[O-])cc3)ncc21` [II-11], for which the IC50 in [1] and in assay [2] was greater than 30 µM throughout.
As for `CN1C(=O)c2sccc2N(C)c2nc(Nc3ccc(N)cc3)ncc21` [II-14], the IC50 is 2.16 µM in assay [1] (read-out: MST1 IC50) and 2.75 µM in assay [2].
Consider `COc1cc(N2CCN(C)CC2)ccc1Nc1ncc2c(n1)N(C)c1ccsc1C(=O)N2C` [II-16], for which the IC50 in assay [1] and in assay [2] was greater than 30 µM each time.
In the case of `COc1cc(N2CCC(O)CC2)ccc1Nc1ncc2c(n1)N(C)c1ccsc1C(=O)N2C` [II-22], the IC50 in assay [1] and in assay [2] was greater than 30 µM throughout.
Compound `CN1C(=O)c2sccc2N(C)c2nc(Nc3cc[nH]n3)ncc21` [II-27] yielded an IC50 in assay [2] greater than 30 µM.
Turning to `CN1C(=O)c2cccc3c2N(CC3)c2nc(Nc3cccc(S(N)(=O)=O)c3)ncc21` [IV-2], the IC50 in [1] and in assay [2] was greater than 30 µM in each case.
For `CN1C(=O)c2sccc2N(C)c2nc(Nc3ccc(S(N)(=O)=O)cc3)ncc21` [X1], the infarct size entry in assay [3] (2 mg/kg i.p. twice, 24 hours and 3 hours prior to MCAO, 60 minutes ischemia, 23 hours reperfusion, FIGS. 13, 14A) is reported as “significantly attenuated”. In [3] (MCAO mice, in comparison with vehicle treatment, FIG. 14B), the “neurological function (0-4-point neurological score)” value was “reducing the damages to neurological functions”. In [4], the “heart function measured as EF % (ejection fraction)” value is recorded as “reduced the EF % decrease”. In addition, in [5], the “mRNA level of ICAM-1 in mouse lung” value is “markedly suppressed”, the “mRNA level of IL-6 in mouse lung” value is given as “markedly suppressed”, the “mRNA level of MCP-1 in mouse lung” value is listed as “markedly suppressed” and the “mRNA level of VCAM-1 in mouse lung” value is listed as “markedly suppressed”. In addition, in assay [6], the “expression of ICAM-1” value is “barely affected”. For the same compound, the “adhesion of THP-1 cells to TNFα-activated ECs” value in assay [7] is “markedly inhibited”. Also, the VCAM-1 expression result in assay [8] (1 μM, 1 hour pretreatment, TNF-α (20 ng/mL) and IL-1β (10 ng/mL) 12 hours, FIG. 15A) is “substantially inhibited”. In addition, the IC50 in assay [8] turned out to be 1.29 µM. Also, the “mRNA levels of inflammatory cytokines in HUVEC, such as MCP-1 and IL-6” value in [9] is on record as “markedly inhibited”.
In the case of `CN1C(=O)c2ccccc2N(C)c2nc(Nc3ccc(S(N)(=O)=O)cc3)ncc21` [Y1], the “heart function measured as EF % (ejection fraction)” value in [4] is “reduced the EF % decrease”. The “adhesion of THP-1 cells to TNFα-activated ECs” value in assay [7] is given as “markedly inhibited”. For the same compound, in [8] (HUVECs, FIGS. 15B, 16A-16B), the IC50 came out at 0.49 µM. For the same compound, the “mRNA levels of inflammatory cytokines in HUVEC, such as MCP-1 and IL-6” value in [9] is listed as “markedly inhibited”.
